Test results: patent US5444073A, “Method for treating memory impairment” (H. Lundbeck A/S, priority 1991, dated 1995)

Assay: Catalepsy test (rat on a vertical wire mesh, s.c.)
Details: Cataleptic Activity, maximum within the first 6 hours
Procedure: Test compound is given s.c. in different doses. The rat (170-240 g) is placed on a vertical wire mesh (mesh-diameter 12 mm). The rat is considered cataleptic if it remains immobile for more than 15 sec. The maximum number of rats showing catalepsy within the first 6 hours is recorded for each dose group. The results are recorded in fractions and an ED50 value is calculated by means of log-probit analysis.

Going from `O=C(O)/C=C/C(=O)O.O=C1CCCN1CCN1CCC(c2cn(-c3ccc(F)cc3)c3ccc(Cl)cc23)CC1` [Comp. No 4, 5-chloro-1-(4-fluorophenyl)-3-[1-[2-(2-pyrrolidinon-1-yl)ethyl]-4-piperidyl]-1H-indole, fumarate] to `CN1CCN(CCN2CCC(c3cn(-c4ccc(F)cc4)c4ccc(Cl)cc34)CC2)C1=O.O=C(O)/C=C/C(=O)O` [Comp. No 3, 5-chloro-1-(4-fluorophenyl)-3-[1-[2-(3-methyl-2-imidazolidinon-1-yl)ethyl]4-piperidyl]-1H-indole, fumarate], the “ED50(s.c.)” value rises from 23 µmol/kg to 31 µmol/kg.

Compared with “5-Chloro-1-(4-fluorophenyl)-3-[1-[2-(2-imidazolidinon-1-yl)ethyl]-1,2,3,6-tetrahydropyridin-4-yl]-5-trifluoromethyl-1H-indole [Comp. B]”, `O=C1NCCN1CCN1CC=C(c2cn(-c3ccc(F)cc3)c3ccc(C(F)(F)F)cc23)CC1` [Comp. A, 1-(4-Fluorophenyl)-3-[1-[2-(2-imidazolidinon-1-yl)ethyl]-1,2,3,6-tetrahydropyridin-4-yl]-5-trifluoromethyl-1H-indole] is lower in “ED50(s.c.)” value: 2.2 µmol/kg for the first, 0.49 µmol/kg for the second.

With “5-Chloro-1-(4-fluorophenyl)-3-[4-[2-(2-imidazolidinon-1-yl)ethyl]-12,3,6-tetrahydropyridin-4-yl]-5-trifluoromethyl-1H-indole [Comp. C]” the “ED50(s.c.)” value was 4.5 µmol/kg.
